Measured values reported in patent publication US8383643B2, “Spiro compounds useful as inhibitors of stearoyl-coenzyme A delta-9 desaturase” (Merck Canada Inc., priority 2009, dated 2013).

These molecules were tested against T1, human SCD1 (Homo sapiens, UniProt O00767) (assay: SCD enzyme activity assay, reconstituted human SCD1 desaturase system ([3H]-stearoyl-CoA conversion)). Conditions: read-out: IC50 hSCD-1.
T1 construct: made in house; host or cells: baculovirus/Sf9
T1 sequence (O00767 1-359): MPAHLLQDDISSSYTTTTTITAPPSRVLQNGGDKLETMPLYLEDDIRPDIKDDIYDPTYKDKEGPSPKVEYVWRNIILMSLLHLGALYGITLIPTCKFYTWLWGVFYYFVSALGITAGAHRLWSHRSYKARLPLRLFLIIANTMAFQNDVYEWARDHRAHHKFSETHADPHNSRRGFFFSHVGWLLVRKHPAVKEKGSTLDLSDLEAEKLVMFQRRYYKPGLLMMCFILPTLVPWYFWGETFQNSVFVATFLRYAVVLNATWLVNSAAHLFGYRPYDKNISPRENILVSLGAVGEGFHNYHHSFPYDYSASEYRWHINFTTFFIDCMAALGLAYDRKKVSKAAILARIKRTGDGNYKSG
Format: biochemical
Method: The potency of compounds of formula I against the stearoyl-CoA desaturase was determined by measuring the conversion of radiolabeled stearoyl-CoA to oleoyl-CoA using rat liver microsome or human SCD1 following previously published procedures with some modifications (Joshi, et al., J. Lipid Res., 18: 32-36 (1977); Talamo, et al., Anal. Biochem, 29: 300-304 (1969)). Liver microsome was prepared from male Wistar or Sprague Dawley rats on a high carbohydrate diet for 3 days (LabDiet #5803, Purina). The livers were homogenized (1:10 w/v) in a buffer containing 250 mM sucrose, 1 mM EDTA, 5 mM DTT and 50 mM Tris-HCl (pH 7.5). After a 100,000×g centrifugation for […], the liver microsome pellet was suspended in a buffer containing 100 mM sodium phosphate, 20% glycerol, 2 mM DTT, and stored at −78° C. Human SCD1 desaturase system was reconstituted using human SCD1 from a baculovirus/Sf9 expression system, cytochrome B5 and cytochrome B5 reductase. Typically, test compound in 2 μL DMSO was incubated for […] at room temperature with 180 μL of the SCD enzyme in a buffer containing 100 mM Tris-HCl (pH 7.5), ATP (5 mM), Coenzyme-A (0.1 mM), Triton X-100 (0.5 mM) and NADH (2 mM). The reaction was initiated by the addition of 20 μL of [^3H]-stearoyl-CoA (final concentration=2 μM, radioactivity concentration=1 μCi/mL). After 10 min, the reaction mixture (80 μL) was mixed with a calcium chloride/charcoal aqueous suspension (100 μL charcoal (10% w/v) plus 25 μL CaCl2 (2N). After centrifugation to precipitate the radioactive fatty acid species, tritiated water released from 9,10-[^3H]-stearoyl-CoA by the SCD enzyme was quantified on a scintillation counter.

| Molecule | IC50 [nM] |
| --- | --- |
| (5-{2-[4-(2-Chlorophenyl)-1′H-spiro[chromene-2,4′-piperidin]-1′-yl]-1,3-thiazol-5-yl}-2H-tetrazol-2-yl)acetic acid [Example 1] | 0.92 |
| (5-{5-[4-(2-Chlorophenyl)-1′H-spiro[chromene-2,4′-piperidin]-1′-yl]-1,3,4-thiadiazol-2-yl}-2H-tetrazol-2-yl)acetic acid [Example 2] | 0.61 |
| (5-{5-[4-(2-Chlorophenyl)-1′H-spiro[chromene-2,4′-piperidin]-1′-yl]-1,3,4-thiadiazol-2-yl}-2H-tetrazol-2-yl)acetic acid [Example 4] | 2 |
| (5-{2-[4-(2,4-Dichlorophenyl)-1′H-spiro[chromene-2,4′-piperidin]-1′-yl]-1,3-thiazol-5-yl}-2H-tetrazol-2-yl)acetic acid [Example 5] | 1.1 |
| O=C(O)Cn1nnc(-c2cnc(N3CCC4(C=C(c5ccc(OC(F)(F)F)cc5)c5ccccc5O4)CC3)s2)n1 [Example 3, [5-(2-{-4-[4-(Trifluoromethoxy)phenyl]-1′H-spiro[chromene-2,4′-piperidin]-1′-yl}-1,3-thiazol-5-yl)-2H-tetrazol-2-yl]acetic acid] | 1.1 |
| 2-(5-(2-(4-(4-Fluorophenyl)spiro[chromene-2,4′-piperidine]-1′-yl)thiazol-5-yl)-2H-tetrazol-2-yl)acetic acid [Example 6] | 1.3 |
| 2-(5-(5-(4-(4-Fluorophenyl)spiro[chromene-2,4′-piperidine]-1′-yl)-1,3,4-thiadiazol-2-yl)-2H-tetrazol-2-yl)acetic acid [Example 7] | 0.97 |
